{"source": "patent US20170298438A1", "about": "“DETECTION AND TREATMENT OF BREAST CANCER” (The European Molecular Biology Laboratory, priority 2011, published 2017)", "type_in_all_cases": "cell-based, human", "key": {"HeLa Kyoto cells": {"test_system": "HeLa Kyoto cells", "experiment": "H3S10ph immuno-labelling of synchronised HeLa Kyoto cells", "details": "thymidine double block, BI2536 at 5 μM", "method": "HeLa Kyoto cells were synchronised in S phase by a double thymidine block (Sigma). Briefly, a final concentration of 3 mM thymidine was added to the culture medium for 18 h, followed by release into fresh culture medium for 9 h and a second block with 3 mM thymidine for 17 h. […] Cell synchronisation was confirmed by flow cytometry. For immunofluorescence, HeLa Kyoto cells were grown on coverslips (12 mm #1 VWR International) and synchronised as described above. The synchronised cells were rinsed in PBS, fixed in 1% PFA, permeabilised with 0.1% Triton X-100/0.02% SDS, and blocked in 2% BSA. After the blocking step, phosphohistone H3 (H3S10ph) antibody was applied for 1 h at a dilution of 1/500 and after three washes with PBS, Alexa Fluor 594 antibody was added at a dilution of 1/300 for 1 h. Coverslips were washed three times in PBS and mounted with Vectashield non-fade DAPI (Vector Laboratories)."}, "T47D cells": {"test_system": "T47D cells", "experiment": "H3S10ph immuno-staining, mitotic phase distribution in T47D cells", "set-up": "reduction of the proportion of mitotic T47D cells in prophase/prometaphase: dose or concentration left out as unconfirmed", "method": "(§1) To prepare cell monolayers, 0.5×10^6 cells were cytospun onto glass slides at 800×g for 5 min using a Cytospin 4 cytocentrifuge (Thermo Scientific), air dried and fixed in 4% neutral buffered formalin overnight.\n(§2) Section deparaffinisation, antigen retrieval and immuno-staining were performed using the Bond III Autostainer and Bond Polymer Refine Detection kit (Leica) according to the manufacturer's instructions. Heat-mediated antigen retrieval and proteolytic digestion were used for H3S10ph and PAPPA antigens, respectively. Primary antibodies were applied for 40 min at the following dilutions: PAPP-A at 1/200; H3S10ph at 1/4000. Cytospin preparations were immuno-stained using the same protocol without the deparaffinisation step. Incubation without primary antibody was used as a negative control and sections of tonsil and placenta were used as positive controls for H3S10ph and PAPPA antibodies, respectively.\nTwo consecutive serial sections from each tissue sample and two cytospin preparations for each cell line were immuno-stained for H3S10ph for analysis of mitotic phase distribution. […]\nPAPPA and ZMPSTE24 (control) are zinc-dependent metalloproteinases of the metzincin superfamily. […] PAPPA and ZMPSTE24 expression levels were determined by qRT-PCR and western blot. […]"}, "BT549 cells": {"test_system": "BT549 cells", "experiment": "H3S10ph immuno-labelling, mitotic phase distribution in BT549 cells", "details": "BT549 cytospin preparations", "method": "as §1\nas §2, with “Incubation without primary antibody was used as a negative control and sections of tonsil and placenta were used as positive controls for H3S10ph and PAPPA antibodies, respectively.” left out\nPAPPA was silenced by RNAi with a specific RNA duplex targeting PAPPA mRNA (Ambion s10042; sense 5′-GAGCCUACUUGGAUGUUAAtt-3′ (SEQ ID NO. 37) and antisense 5′-UUAACAUCCAAGUAGGCUCtg-3′ (SEQ ID NO. 38) or, alternatively, a pool of duplexes (ON-TARGETpIus SMARTpooI, Dharmacon). Non-targeting siRNA (Stealth RNAi Negative Control Med GC, Invitrogen) was used as negative control. All transfections were performed with Lipofectamine 2000 (Invitrogen). PAPPA siRNA at 100 nM final concentration was used to achieve efficient knock-down. Cells were harvested at the indicated time points post-transfection. Knock-down efficiency was assessed by qRT-PCR and/or Western blot. […]"}}, "data": [{"compound": "CC[C@@H]1C(=O)N(C)c2cnc(Nc3ccc(C(=O)NC4CCN(C)CC4)cc3OC)nc2N1C1CCCC1", "note": "[BI2536]", "values": [{"measurement": "phosphohistone H3 (H3S10ph) detection in synchronised cells", "setting": "HeLa Kyoto cells", "result": "enrichment of prometaphase cells"}]}, {"compound": "Cc1cn([C@H]2C[C@H](O)[C@@H](CO)O2)c(=O)[nH]c1=O", "note": "[thymidine]", "values": [{"measurement": "phosphohistone H3 (H3S10ph) detection in synchronised cells", "setting": "HeLa Kyoto cells", "result": "not detected"}]}, {"compound": "IGF-1: recombinant Human IGF-1 (IMR-233, Imgenex); IGF receptor agonist", "values": [{"measurement": "effect on mitotic delay phenotype in T47D cells", "setting": "T47D cells; T47D cells (PAPPA promoter methylated)", "result": "reverses the mitotic delay phenotype"}, {"measurement": "reduction of the proportion of mitotic T47D cells in prophase/prometaphase", "setting": "T47D cells; recombinant human IGF-1, harvested 24 h later, cells serum starved 48 h, versus control", "result": "approximately one half"}]}, {"compound": "siRNA-42: single RNA duplex targeting PAPPA mRNA, Ambion s10042 (SEQ ID NO. 37 and 38) (chain 1 GAGCCUACUUGGAUGUUAA; chain 2 UUAACAUCCAAGUAGGCUC; listed as RNA, chemistry not given here)", "values": [{"measurement": "mitotic phase phenotype in BT549 cells", "setting": "BT549 cells", "result": "prophase/prometaphase delay phenotype"}]}]}
